Laboratory results: patent US6262073A, “Pharmaceutical methods of use of 5-substituted and 5,5 disubstituted-3,4-dihydroxy-2(5H)-furanones” (Oxis International Inc., priority 2000, dated 2001)

Legend:
PGE2 production = settings: stimulated macrophages; read-out: Inhibition of PGE2 production IC50; cited from earlier work
LTB4 production = settings: stimulated macrophages; read-out: Inhibition of LTB4 production IC50; cited from earlier work
platelet aggregation = settings: read-out: AA-induced platelet aggregation (AAIPA) IC50; cited from earlier work
platelet function = settings: cited from earlier work
NF-κB [1] = assay: NF-κB nuclear membrane translocation, EMSA, LPS-treated NR8383 cells; assay type: cell-based; settings: Rattus norvegicus; 10,000 nM; LPS 1 μg/ml; NR8383 cells; 6 hours
Protocol: Experiments measuring test agents effect on NF-κB nuclear membrane translocation were performed with NR8383 cells, which are transformed rat alveolar macrophages. […] In addition, some compounds were tested at doses of 10 and 30 μM. Untreated control cells and cells treated with LPS alone were tested in each experiment. Cells were harvested 6 hours after treatment. Nuclear proteins were extracted, frozen and quantified using the Bradford assay. Electrophoretic mobility shift assays (EMSA) were subsequently analyzed using a radiolabeled NF-κB probe. Nuclear proteins were reacted with the radiolabeled probe, run on a 5% polyacrylamide gel, and subjected to autoradiography. Specificity of protein binding for the NF-κB binding site was assayed by cold and nonspecific competition using the LPS treated sample in each experiment. All EMSA were duplicated at least once to verify results. Laser densitometry of NF-κB bands was done on autoradiographs to quantify NF-κB binding activity.

NF-κB [2] = settings: cited from earlier work

Structure (SMILES): CCCCC/C=C\C/C=C\C/C=C\C/C=C\CC[C@@H]1OC(=O)C(O)=C1O [(S)-3,4-dihydroxy-5[(all Z)-3,6,9,12-octadecatraenyl]-2 (5H)-furanone]
- IC50 (PGE2 production): 20 µM
- IC50 (LTB4 production): 20 µM
- IC50 (platelet aggregation): < 10 µM

Structure (SMILES): O=C1OC(c2ccc(Cl)cc2)C(O)=C1O (stereo not drawn) [CHTA, 4-(4-chlorophenyl)-2-hydroxytetronic acid]
- Inhibition of platelet function (platelet function): inhibits platelet function by a similar mechanism, involving arachidonic acid release

Structure (SMILES): S=C(S)N1CCCC1 [Pyrrolidone dithiocarbamate (PDTC), Pyrrolidone dithiocarbamate]
- inhibition at 10 µM (NF-κB [1]): 50%
- Inhibition of H2O2 and extracellular cytokine-induced activation of NF-κB (NF-κB [2]): inhibit both the H2 O2 and extracellular cytokine-induced activation of NF-κB in a concentration dependent manner
